The target of series [1] is T1, recombinant human GST-Syk (Homo sapiens, UniProt P43405).
T1 construct: purchased Carna Biosciences 08-176
Description: Homogeneous Time-Resolved Fluorescence (HTRF) assay for the recombinant human Syk enzyme. Type of series: biochemical. The note with it: recombinant human GST-Syk 5 pM, ATP 25 μM, read-out: IC50. The procedure:
Syk inhibition of the compounds of Formula (I) may be determined using the following assay protocol: Homogeneous Time-Resolved Fluorescence (HTRF) Assay for the Recombinant Human Syk Enzyme: A recombinant GST-hSyk fusion protein was used to measure potency of compounds to inhibit human Syk activity. […] Final volume of the reaction was 10 μL. Phosphorylation of the peptide was allowed to proceed for 45' at room temperature. To quench the reaction and detect the phosphorylated product, 2 nM of a Europium-anti-phosphotyrosine antibody (Perkin Elmer #AD0161) and 70 nM SA-APC (Perkin-Elmer #CR130-100) were added together in 15 mM Tris pH 7.5, 40 mM EDTA, 0.01% tween 20. Final volume of the quenching solution was 10 μL. The resulting HTRF signal was measured after 30 minutes on a EnVision (Perkin-Elmer) reader using a time-resolved fluorescence protocol.

The nature of series [2]: Solubility in biorelevant fasted state simulated intestinal fluid (FaSSIF). Type of series: physicochemical. The procedure: Solubility in Biorelevant Fasted State Simulated Intestinal Fluid (FaSSIF):
A 10 mM DMSO stock solution of compound to be tested is used. A 100 μM standard solution is generated by diluting 2.5 μL of the 10 mM stock solution with 247.5 μL of diluent (10% DMSO/10% MeCN/80% MeOH, v/v/v). A solubility solution is generated by diluting 5 μL of the 10 mM stock solution with 245 μL of FaSSIF (maximum solubility approximately 200 μM). […] The equilibrated solubility solution is filtered by centrifugation (3 minutes at 4000 rpm) using a 0.45 µm filter with a polypropylene membrane. The standard solution and the filtered equilibrated solubility solution are analyzed by HPLC/DAD. The solubility value is calculated by the following equation:
Solubility=(Peak area of sample/Peak area of standard)(Standard concentration)

The mark [3] stands for this setting: 25 °C, fassif, kinetic from dmso stock, Solubility.

≈ marks a conversion by molar mass, not a printed value. Read-outs that look alike come from different tables or passages of the source.

Turning to `Cc1cc(Nc2cc(C(F)F)ccn2)nc(-c2ccc([C@](C)(O)[C@H]3CC[C@H](C(=O)OCCCCCCN(C)C)CC3)nc2)c1` [Example 1-25, 6-(dimethylamino)hexyl trans-4-[(1R)-1-(6-{[4-(difluoromethyl)pyridin-2-yl]amino}-4-methyl-2,3′-bipyridin-6′-yl)-1-hydroxyethyl] cyclohexanecarboxylate], the IC50 in series [1] was less than 0.5 nM. In series [2] (setting [3]), this compound yielded a solubility of 73 µM (≈ 44.5 µg/mL).
Taken in the same sequence, the figures for `Cc1cc(Nc2cc(C(F)F)ccn2)nc(-c2ccc([C@](C)(O)[C@H]3CC[C@H](C(=O)OCCC(=O)N(C)C)CC3)nc2)c1` [Example 1-27, 3-(dimethylamino)-3-oxopropyl trans-4-[(1R)-1-(6-{[4-(difluoromethyl)pyridin-2-yl]amino}-4-methyl-2,3′-bipyridin-6′-yl)-1-hydroxyethyl] cyclohexanecarboxylate] were 1.8 nM and 50 µM (≈ 29.1 µg/mL).
The matching figures for `Cc1cc(Nc2cc(C(F)F)ccn2)nc(-c2ccc([C@](C)(O)[C@H]3CC[C@H](C(=O)OC[C@H]4COC(C)(C)O4)CC3)nc2)c1` [Example 1-14, [(4R)-2,2-dimethyl-1,3-dioxolan-4-yl]methyl trans-4-[(1R)-1-(6-{[4-(difluoromethyl)pyridin-2-yl]amino}-4-methyl-2,3′-bipyridin-6′-yl)-1-hydroxyethyl] cyclohexanecarboxylate]: 27.6 nM and 109 µM (≈ 65 µg/mL).
In the case of `CC[N+]1(COC(=O)[C@H]2CC[C@H]([C@@](C)(O)c3ccc(-c4cc(C)cc(Nc5cc(C(F)F)ccn5)n4)cn3)CC2)CCCCC1` [Example 5-14, 1-{[({trans-4-[(1R)-1-(6-{[4-(difluoromethyl)pyridin-2-yl]amino}-4-methyl-2,3′-bipyridin-6′-yl)-1-hydroxyethyl]cyclohexyl}carbonyl)oxy]methyl}-1-ethylpiperidinium], the IC50 in series [1] came out at 2.3 nM. In series [2] (setting [3]), this compound displayed a solubility of 200 µM.
Taken in the same sequence, the figures for `CC[N+](COC(=O)[C@H]1CC[C@H]([C@@](C)(O)c2ccc(-c3cc(C)cc(Nc4cc(C(F)F)ccn4)n3)cn2)CC1)(C(C)C)C(C)C` [Example 5-3, N-{[({trans-4-[(1R)-1-(6-{[4-(difluoromethyl)pyridin-2-yl]amino}-4-methyl-2,3′-bipyridin-6′-yl)-1-hydroxyethyl]cyclohexyl}carbonyl)oxy]methyl}-N-ethyl-N-(1-methylethyl)propan-2-aminium] were 1.9 nM and 175 µM.
The matching figures for `Cc1cc(Nc2cc(C(F)F)ccn2)nc(-c2ccc([C@](C)(O)[C@H]3CC[C@H](C(=O)OC[C@H](O)CO)CC3)nc2)c1` [Example 1-16, (2R)-2,3-dihydroxypropyl trans-4-[(1R)-1-(6-{[4-(difluoromethyl)pyridin-2-yl]amino}-4-methyl-2,3′-bipyridin-6′-yl)-1-hydroxyethyl] cyclohexanecarboxylate]: 2.3 nM and 165 µM (≈ 91.8 µg/mL).
As to `Cc1cc(Nc2cc(C(F)F)ccn2)nc(-c2ccc([C@](C)(O)[C@H]3CC[C@H](C(=O)OCCC(C)(C)O)CC3)nc2)c1` [Example 1-12, 3-hydroxy-3-methylbutyl trans-4-[(1R)-1-(6-{[4-(difluoromethyl)pyridin-2-yl]amino}-4-methyl-2,3′-bipyridin-6′-yl)-1-hydroxyethyl] cyclohexanecarboxylate], in series [1], the IC50 turned out to be 10 nM. Also, the solubility in series [2] (kinetic from dmso stock, FaSSIF, equilibrated overnight at 25° C., maximum solubility approximately 200 μM, read-out: Solubility) is 76 µM (≈ 43.2 µg/mL).
Regarding `COCCN(C)C(=O)OC(C)OC(=O)[C@H]1CC[C@H]([C@@](C)(O)c2ccc(-c3cc(C)cc(Nc4cc(C(F)F)ccn4)n3)cn2)CC1` (single isomer, unassigned) [Example 4-1a], the IC50 in series [1] was 24.7 nM. Besides, in series [2] (setting [3]), the concentration in solution (solubility) came to 40 µM (≈ 25.7 µg/mL).
The matching figures for `CCOCCOCCOC(=O)OC(OC(=O)[C@H]1CC[C@H]([C@@](C)(O)c2ccc(-c3cc(C)cc(Nc4cc(C(F)F)ccn4)n3)cn2)CC1)C(C)C` (stereo partly drawn) [Example 2-16, 1-(1-methylethyl)-3-oxo-2,4,7,10-tetraoxadodec-1-yl trans-4-[(1R)-1-(6-{[4-(difluoromethyl)pyridin-2-yl]amino}-4-methyl-2,3′-bipyridin-6′-yl)-1-hydroxyethyl]cyclo hexanecarboxylate]: 48.4 nM and 48 µM (≈ 34.3 µg/mL).
In the case of `Cc1cc(Nc2cc(C(F)F)ccn2)nc(-c2ccc([C@](C)(O)[C@H]3CC[C@H](C(=O)OCC[S@+](C)[O-])CC3)nc2)c1` (single isomer, unassigned) [Example 7-1b], in series [1], the 50% inhibitory concentration (IC50) was determined as 3.3 nM. Besides, the solubility in series [2] (setting [3]) was 52 µM (≈ 29.8 µg/mL).
The matching figures for `Cc1cc(Nc2cc(C(F)F)ccn2)nc(-c2ccc([C@](C)(O)[C@H]3CC[C@H](C(=O)OC[N+](C)(C)CCN(C)C)CC3)nc2)c1` [Example 5-5, N-{[({trans-4-[(1R)-1-(6-{[4-(difluoromethyl)pyridin-2-yl]amino}-4-methyl-2,3′-bipyridin-6′-yl)-1-hydroxyethyl]cyclohexyl}carbonyl)oxy]methyl}-2-(dimethylamino)-N,N-dimethylethanaminium]: 1.3 nM and 53 µM.
For the compound `Cc1cc(Nc2cc(C(F)F)ccn2)nc(-c2ccc([C@](C)(O)[C@H]3CC[C@H](C(=O)O[C@H]4C[C@H](N)C4)CC3)nc2)c1` [Example 1-5, trans-3-Aminocyclobutyl trans-4-[(1R)-1-(6-{[4-(difluoromethyl)pyridin-2-yl]amino}-4-methyl-2,3′-bipyridin-6′-yl)-1-hydroxyethyl]cyclohexanecarboxylate], in series [1], the IC50 came out at 4.4 nM. In addition, the solubility in series [2] (read-out: Solubility) is 164 µM (≈ 90.5 µg/mL).
On to `Cc1cc(Nc2cc(C(F)F)ccn2)nc(-c2ccc([C@](C)(O)[C@H]3CC[C@H](C(=O)OCCCN(C)C)CC3)nc2)c1` [Example 1-13, 3-(dimethylamino)propyl trans-4-[(1R)-1-(6-{[4-(difluoromethyl)pyridin-2-yl]amino}-4-methyl-2,3′-bipyridin-6′-yl)-1-hydroxyethyl] cyclohexanecarboxylate], for which the concentration for half-maximal inhibition (IC50) in series [1] was found to be 4.4 nM. This compound also had a solubility in series [2] (setting [3]) of 140 µM (≈ 79.5 µg/mL).
Taken in the same sequence, the figures for `Cc1cc(Nc2cc(C(F)F)ccn2)nc(-c2ccc([C@](C)(O)[C@H]3CC[C@H](C(=O)OC[C@@H]4COC(C)(C)O4)CC3)nc2)c1` [Example 1-15, [(4S)-2,2-dimethyl-1,3-dioxolan-4-yl]methyl trans 4-[(1R)-1-(6-{[4-(difluoromethyl)pyridin-2-yl]amino}-4-methyl-2,3′-bipyridin-6′-yl)-1-hydroxyethyl] cyclohexanecarboxylate] were 18.5 nM and 126 µM (≈ 75.2 µg/mL).
Taken in the same sequence, the figures for `Cc1cc(Nc2cc(C(F)F)ccn2)nc(-c2ccc([C@](C)(O)[C@H]3CC[C@H](C(=O)OC[N+]4(C)CCN(C)CC4)CC3)nc2)c1` [Example 5-26, 1-{[({trans-4-[(1R)-1-(6-{[4-(difluoromethyl)pyridin-2-yl]amino}-4-methyl-2,3′-bipyridin-6′-yl)-1-hydroxyethyl]cyclohexyl}carbonyl)oxy]methyl}-1,4-dimethylpiperazin-1-ium] were 2 nM and 68 µM.
The matching figures for `Cc1cc(Nc2cc(C(F)F)ccn2)nc(-c2ccc([C@](C)(O)[C@H]3CC[C@H](C(=O)OC[N+](C)(C)CCOCCN(C)C)CC3)nc2)c1` [Example 5-23, N-{[({trans-4-[(1R)-1-(6-{[4-(difluoromethyl)pyridin-2-yl]amino}-4-methyl-2,3′-bipyridin-6′-yl)-1-hydroxyethyl]cyclohexyl}carbonyl)oxy]methyl}-2-[2-(dimethylamino)ethoxy]-N,N-dimethylethanaminium]: 1.1 nM and 98 µM.
For the compound `CCC[N+](CCC)(CCC)COC(=O)[C@H]1CC[C@H]([C@@](C)(O)c2ccc(-c3cc(C)cc(Nc4cc(C(F)F)ccn4)n3)cn2)CC1` [Example 5-9, N-{[({trans-4-[(1R)-1-(6-{[4-(difluoromethyl)pyridin-2-yl]amino}-4-methyl-2,3′-bipyridin-6′-yl)-1-hydroxyethyl]cyclohexyl}carbonyl)oxy]methyl}-N,N-dipropylpropan-1-aminium], the IC50 in series [1] turned out to be 1 nM. Moreover, the concentration in solution in series [2] (setting [3]) (solubility) came to 137 µM.
The matching figures for `Cc1cc(Nc2cc(C(F)F)ccn2)nc(-c2ccc([C@](C)(O)[C@H]3CC[C@H](C(=O)OCOC(=O)OCCCCCCN)CC3)nc2)c1` [Example 2-1, ({[(6-Aminohexyl)oxy]carbonyl}oxy)methyl trans-4-[(1R)-1-(6-{[4-(difluoromethyl)pyridin-2-yl]amino}-4-methyl-2,3′-bipyridin-6′-yl)-1-hydroxyethyl]cyclohexanecarboxylate]: 19.9 nM and 167 µM (≈ 110 µg/mL).
Regarding `Cc1cc(Nc2cc(C(F)F)ccn2)nc(-c2ccc([C@](C)(O)[C@H]3CC[C@H](C(=O)OCn4ccnc4)CC3)nc2)c1` [Example 6-4, 1H-imidazol-1-ylmethyl trans-4-[(1R)-1-(6-{[4-(difluoromethyl)pyridin-2-yl]amino}-4-methyl-2,3′-bipyridin-6′-yl)-1-hydroxyethyl]cyclohexanecarboxylate], in series [2] (setting [3]), the concentration in solution (solubility) came to 156 µM (≈ 87.8 µg/mL).
